“And” between values parts separate entries of the source, which are not always exact repeats. Equal entries are not always repeated.
Columns and labels:
[1] = target: T1, BRD4 Bromodomain 1 (BRD4 BD1) (Homo sapiens, UniProt O60885); assay: AlphaScreen binding assay, BRD4 BD1; conditions: His-tagged BRD4 BD1 50 nM, biotinylated H4 (1-21) K5/8/12/16 tetra-acetylated peptide 50 nM, compounds listed under IC50 range headings
T1 construct: 44-168 and BRD4 BD2
How it was run: (§1)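 An AlphaScreen competition format was used with His-BRD4 BD1 or BD2 and biotin-H4 K5/8/12/16-acetyl peptide, each at matched final levels of 50 nM (BD1) or 100 nM (BD2). Incubation in HEPES/NaCl buffer with 0.1% BSA and 0.01% Triton X-100 ran ≥1 h before IC50 determination.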

[2] = target: T2, BRD4 Bromodomain 2 (BRD4 BD2) (Homo sapiens, UniProt O60885); assay: AlphaScreen binding assay, BRD4 BD2; conditions: His-tagged BRD4 BD2 100 nM, biotinylated H4 (1-21) K5/8/12/16 tetra-acetylated peptide 100 nM, compounds listed under IC50 range headings
T2 construct: 333-460 were cloned, expressed, and purified to homogeneity
How it was run: as §1

[3] = system: acute myelocytic leukemia (AML) cell line MV4-11; assay: Oncology cell growth assay (3-day proliferation, CellTiter-Glo); format: cell-based; conditions: Homo sapiens, MV4-11, 72 h, MV4-11 cells, 3000 cells/well, compounds listed under IC50 range headings, read-out: MV411 IC50 (gIC50, inhibition of proliferation)
How it was run: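 Compounds were serially diluted 3-fold in DMSO, giving final well concentrations from 10 down to 0.0045 μM. MV4-11 cells were then seeded at 3000 cells/well in RPMI 1640 with 10% FBS and incubated 72 hours. CellTiter-Glo signal was measured and gIC50 obtained by four-parameter logistic regression.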

COC(=O)N1c2ccc(-c3cnn(C4CCN(C)CC4)c3)c(Oc3ccc(Cl)cc3C#N)c2CC[C@@H]1C [I-245, methyl (S)-5-(4-chloro-2-cyanophenoxy)-2-methyl-6-(1-(1-methylpiperidin-4-yl)-1H-pyrazol-4-yl)-3,4-dihydroquinoline-1(2H)-carboxylate]
IC50 [1]: 100 to 1000 nM and ≥ 10000 nM | IC50 [2]: < 50 nM | IC50 [3]: < 500 nM

CCCOc1c(-c2cnn(CCO)c2)ccc2c1CC[C@H](C)N2C(=O)OC [I-443]
IC50 [1]: 1000 to 10000 nM | IC50 [2]: < 50 nM | IC50 [3]: < 500 nM

C[C@H]1CCc2c(ccc(-c3cnn(C4CNC4)c3)c2OC2CCC2)N1C(=O)C1CC1 [I-101, (S)-(6-(1-(azetidin-3-yl)-1H-pyrazol-4-yl)-5-cyclobutoxy-2-methyl-3,4-dihydroquinolin-1(2H)-yl)(cyclopropyl)methanone]
IC50 [1]: 100 to 1000 nM | IC50 [2]: < 50 nM | IC50 [3]: < 500 nM

CC(=O)N1c2ccc(-c3cnn(CCO)c3)c(Oc3ncc(C(F)(F)F)cn3)c2CC[C@@H]1C [I-542]
IC50 [1]: 100 to 1000 nM | IC50 [2]: 50 to 500 nM | IC50 [3]: < 500 nM

CC(=O)N1c2ccc(-c3cnn(C4CCNCC4)c3)c(Oc3ccc(C(N)=O)cc3)c2CC[C@@H]1C [I-155, (S)-4-(1-acetyl-2-methyl-6-(1-(piperidin-4-yl)-1H-pyrazol-4-yl)-1,2,3,4-tetrahydroquinolin-5-yloxy)benzamide]
IC50 [1]: 100 to 1000 nM | IC50 [2]: 50 to 500 nM | IC50 [3]: > 1000 nM

CC(=O)N1c2ccc(-c3cnn(CCS(C)(=O)=O)c3)c(OCC(C)C)c2CC[C@@H]1C [I-420]
IC50 [1]: 100 to 1000 nM | IC50 [2]: < 50 nM | IC50 [3]: < 500 nM

COC(=O)N1c2ccc(-c3cnn(CCS(C)(=O)=O)c3)c(Oc3ncc(C)cn3)c2CC[C@@H]1C [I-582]
IC50 [1]: 1000 to 10000 nM | IC50 [2]: 50 to 500 nM | IC50 [3]: > 1000 nM

COC(=O)N1c2ccc(-c3cnn(CC(C)(C)O)c3)c(Oc3ncc(C(F)(F)F)cn3)c2CC[C@@H]1C [I-579]
IC50 [1]: 1000 to 10000 nM | IC50 [2]: 50 to 500 nM | IC50 [3]: > 1000 nM

CC(=O)N1c2ccc(-c3cnn(C4CC4)c3)c(OCS(=O)(=O)N(C)C)c2CC[C@@H]1C [I-46, (S)-(1-acetyl-6-(1-cyclopropyl-1H-pyrazol-4-yl)-2-methyl-1,2,3,4-tetrahydroquinolin-5-yloxy)-N,N-dimethylmethanesulfonamide]
IC50 [1]: 1000 to 10000 nM | IC50 [2]: 50 to 500 nM | IC50 [3]: 500 to 1000 nM

CCCOc1c(-c2nc3ccccc3o2)ccc2c1CC[C@H](C)N2C(C)=O [I-117, (S)-1-(6-(benzo[d]oxazol-2-yl)-2-methyl-5-propoxy-3,4-dihydroquinolin-1(2H)-yl)ethanone]
IC50 [1]: 1000 to 10000 nM | IC50 [2]: 50 to 500 nM | IC50 [3]: > 1000 nM

CCCOc1c(-c2cc3ccccn3n2)ccc2c1CC[C@H](C)N2C(C)=O [I-118, (S)-1-(2-methyl-5-propoxy-6-(pyrazolo[1,5-a]pyridin-2-yl)-3,4-dihydroquinolin-1(2H)-yl)ethanone]
IC50 [1]: 1000 to 10000 nM | IC50 [2]: ≥ 500 nM | IC50 [3]: > 1000 nM

CC(=O)N1c2ccc(-c3cnn(C4CC4)c3)c(OC[C@H]3CCNC3)c2CC[C@@H]1C [I-603]
IC50 [1]: 100 to 1000 nM | IC50 [2]: 50 to 500 nM | IC50 [3]: > 1000 nM

COC(=O)N1c2ccc(-c3cnn(C4CCNCC4)c3)c(Oc3ccccc3)c2CC[C@@H]1C [I-200, (S)-methyl 2-methyl-5-phenoxy-6-(1-(piperidin-4-yl)-1H-pyrazol-4-yl)-3,4-dihydroquinoline-1(2H)-carboxylate]
IC50 [1]: 100 to 1000 nM | IC50 [2]: < 50 nM | IC50 [3]: < 500 nM

CC(=O)N1c2ccc(-c3cnn(C4CC4)c3)c(OC3CCCC3)c2CC[C@@H]1C [I-396]
IC50 [1]: 100 to 1000 nM | IC50 [2]: < 50 nM | IC50 [3]: < 500 nM

COC(=O)N1c2ccc(-c3cnn([C@H]4CCNC[C@H]4F)c3)c(OC3CCC3)c2CC[C@@H]1C [I-362, methyl (2S)-5-cyclobutoxy-6-{1-[(3R,4S)-3-fluoropiperidin-4-yl]-1H-pyrazol-4-yl}-2-methyl-1,2,3,4-tetrahydroquinoline-1-carboxylate]
IC50 [1]: 100 to 1000 nM | IC50 [2]: < 50 nM | IC50 [3]: < 500 nM

— US10611750B2, “Tetrahydroquinoline compositions as bet bromodomain inhibitors” (FORMA Therapeutics, Inc., priority 2013, dated 2020)
